Experimental data reported in patent US11053219B2, “Substituted pyridines as TYK2 inhibitors” (FronThera U.S. Pharmaceuticals LLC, priority 2018, dated 2021).
Read-outs that look alike come from different tables or passages of the source.

Assays:
[1] = target: TYK2 (JH2 domain) (Homo sapiens (Human), UniProt P29597); test: TYK2 JH2 domain binding assay (DiscoverX KINOMEscan); conditions: 11-point 3-fold dilution, duplicate
[2] = tested on: IL12-induced p-STAT4 in human PBMC; test: IL-12 induced pSTAT4 in human PBMC; assay type: cell-based; conditions: read-out: p-STAT4 IC50
[3] = tested on: INFα induced pSTAT3 in human PBMC; test: INFα induced pSTAT3 in human PBMC; assay type: cell-based; conditions: read-out: p-STAT3 IC50
Description: Fresh Human PBMCs were resuspended in RPMI 1640 medium with 10% FBS. Cells were seeded in a round bottom 96-well plate at the concentration of 200,000 cells/well. A 10-point dilution series of test compound (top dose 10 uM, 1:5 dilution) was added to the well using the liquid dispenser (Tecan D300e) and incubated for 1 hour at 37 C. Then human INFα recombinant protein (R&D Systems) was added to the well at the final concentration of 5000 units/ml and incubated for 15 minutes at 37 C. Cell lysates were prepared and analyzed by Phospho STAT3 (Tyr705) cellular kit (Cisbio) or Phospho STAT5 (Tyr693) Kit (Meso Scale Discovery) following manufacturer's protocol.
For calculation of the inhibition rate, the relative pSTAT signal of each well=pSTAT signal of each well−the average pSTAT signal of baseline. The inhibition %=(the average pSTAT signal of INFα treatment wells−the relative of pSTAT signal in each compound containing well)/the average pSTAT signal of INFα treatment wells*100%
The curve was plotted as the inhibition % (y-axis) vs. compounds concentration (x-axis) and was fitted with log(inhibitor) vs. normalized response—Variable slope by GraphPad Prism7.0.

Sequence of TYK2 (JH2 domain) (P29597 589-875): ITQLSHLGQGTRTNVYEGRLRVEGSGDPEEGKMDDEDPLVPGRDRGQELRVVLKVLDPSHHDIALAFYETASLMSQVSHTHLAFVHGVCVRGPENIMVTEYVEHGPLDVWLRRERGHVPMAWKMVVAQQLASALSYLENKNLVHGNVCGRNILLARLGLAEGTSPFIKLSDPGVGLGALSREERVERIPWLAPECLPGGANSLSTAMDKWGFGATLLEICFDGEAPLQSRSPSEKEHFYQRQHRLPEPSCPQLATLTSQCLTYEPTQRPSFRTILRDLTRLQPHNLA

| Kd [1] [nM] | Compound | IC50 ([2]; human PBMC, IL-12 10 ng/ml) [nM] | IC50 ([3]; human PBMC, INFα 5000 units/ml) [nM] | IC50 ([2]; Homo sapiens, PBMC) [nM] | IC50 ([3]; Homo sapiens, PBMC) [nM] |
| --- | --- | --- | --- | --- | --- |
| ≤ 1 | [2H]C([2H])([2H])NC(=O)c1nnc(N2CCC(C)C2=O)cc1Nc1cccc(-c2ncn(C)n2)c1OC (stereo not shown) [Example 64] | 100 to 1000 | 100 to 1000 |  |  |
| 1 to 5 | COc1c(Nc2cc(NC(=O)C3CC3)nc3c2C2=NC(=O)CN2C3)cccc1-c1ncn(C)n1 [Example 41] | 1000 to 10000 | 1000 to 10000 |  |  |
| ≤ 1 | [2H]C([2H])([2H])NC(=O)c1nnc(N2CCN(C(C)C3CC3)C2=O)cc1Nc1cccc(-c2ncn(C)n2)c1OC (stereo not shown) [Example 82] | < 100 | < 100 |  |  |
| 1 to 5 | [2H]C([2H])([2H])NC(=O)c1nnc(N2CCOC2=O)cc1Nc1cccc(-c2ncn(C)n2)c1OC [Example 60] | > 10000 | > 10000 |  |  |
| ≤ 1 | [2H]C([2H])([2H])NC(=O)c1nnc(N2CCN(CC3CC3)C2=O)cc1Nc1cccc(-c2ncn(C)n2)c1OC [Example 68] | < 100 | < 100 |  |  |
|  | [2H]C([2H])([2H])NC(=O)c1nnc(N2CCN(C(C([2H])([2H])[2H])C([2H])([2H])[2H])C2=O)cc1Nc1cccc(-c2ncn(C)n2)c1OC [Example 13, 6-(3-isopropyl-2-oxo-imidazolidin-1-yl)-4-[2-methoxy-3-(1-methyl-1,2,4-triazol-3-yl)anilino]-N-(trideuteriomethyl)pyridazine-3-carboxamide] |  |  | < 100 | < 100 |
| 5 to 10 | COc1c(Nc2cc(NC(=O)C3CC3)nc3ncn(C)c(=O)c23)cccc1-c1ncn(C)n1 [Example 39] | 100 to 1000 | 100 to 1000 |  |  |
| 5 to 10 | COc1c(Nc2cc(NC(=O)C3CC3)nc3c2C(=O)NC3)cccc1-c1ncn(C)n1 [Example 43] | > 10000 | 1000 to 10000 |  |  |
| 1 to 5 | [2H]C([2H])([2H])NC(=O)c1c(Nc2cccc(-c3nnn(C)n3)c2OC)cc(NC(=O)C2CC2)nc1F [Example 42] | 100 to 1000 | 1000 to 10000 |  |  |
| ≤ 1 | [2H]C([2H])([2H])NC(=O)c1nnc(N2CCN(C3COC3)C2=O)cc1Nc1cccc(-c2ncn(C)n2)c1OC [Example 79] | 100 to 1000 | 100 to 1000 |  |  |
| ≤ 1 | [2H]C([2H])([2H])NC(=O)c1nnc(N/C(=N/O)C2CC2)cc1Nc1cccc(-c2ncn(C)n2)c1OC [Example 40] | 100 to 1000 | 100 to 1000 |  |  |
| ≤ 1 | [2H]C([2H])([2H])NC(=O)c1nnc(N2CCN(C3CCOC3)C2=O)cc1Nc1cccc(-c2ncn(C)n2)c1OC (stereo not shown) [Example 80] | < 100 | < 100 |  |  |
| ≤ 1 | [2H]C([2H])([2H])NC(=O)c1nnc(N2CCC3(CC3)C2=O)cc1Nc1cccc(-c2ncn(C)n2)c1OC [Example 4, 4-[2-methoxy-3-(1-methyl-1,2,4-triazol-3-yl)anilino]-6-(4-oxo-5-azaspiro[2.4]heptan-5-yl)-N-(trideuteriomethyl)pyridazine-3-carboxamide] | < 100 | 100 to 1000 |  |  |
| ≤ 1 | [2H]C([2H])([2H])NC(=O)c1nnc(N2CCN(C3CC3)C2=O)cc1Nc1cccc(-c2ncn(C)n2)c1OC [Example 5, 6-(3-cyclopropyl-2-oxo-imidazolidin-1-yl)-4-[2-methoxy-3-(1-methyl-1,2,4-triazol-3-yl)anilino]-N-(trideuteriomethyl)pyridazine-3-carboxamide] | < 100 | 100 to 1000 |  |  |
| ≤ 1 | [2H]C([2H])([2H])NC(=O)c1nnc(N2CCN(CC3CCCO3)C2=O)cc1Nc1cccc(-c2ncn(C)n2)c1OC (stereo not shown) [Example 74] | < 100 | < 100 |  |  |
| 1 to 5 | CNC(=O)c1nnc(N2CCCC2=O)cc1Nc1cccc(-c2ncn(C)n2)c1OC [Example 59] | 1000 to 10000 | 1000 to 10000 |  |  |
| ≤ 1 | [2H]C([2H])([2H])NC(=O)c1nnc(N2CCN(CCOC)C2=O)cc1Nc1cccc(-c2ncn(C)n2)c1OC [Example 9, 6-[3-(2-methoxyethyl)-2-oxo-imidazolidin-1-yl]-4-[2-methoxy-3-(1-methyl-1,2,4-triazol-3-yl)anilino]-N-(trideuteriomethyl)pyridazine-3-carboxamide] | < 100 | 100 to 1000 |  |  |

| Kd [1] [nM] | Compound | IC50 ([2]; human PBMC, IL-12 10 ng/ml) [nM] | IC50 ([3]; human PBMC, INFα 5000 units/ml) [nM] | IC50 ([2]; Homo sapiens, PBMC) [nM] | IC50 ([3]; Homo sapiens, PBMC) [nM] |
| --- | --- | --- | --- | --- | --- |
| ≤ 1 | [2H]C([2H])([2H])NC(=O)c1nnc(N2CCNC2=O)cc1Nc1cccc(-c2ncn(C)n2)c1OC [Example 1, 4-[2-methoxy-3-(1-methyl-1,2,4-triazol-3-yl)anilino]-6-(2-oxoimidazolidin-1-yl)-N-(trideuteriomethyl)pyridazine-3-carboxamide] | < 100 | 100 to 1000 |  |  |
| ≤ 1 | [2H]C([2H])([2H])NC(=O)c1nnc(N2CCN(C(C)C#C)C2=O)cc1Nc1cccc(-c2ncn(C)n2)c1OC (stereo not shown) [Example 84] | < 100 | < 100 |  |  |
| 1 to 5 | COc1c(Nc2cc(NC(=O)C3CC3)nc3cn(C)nc23)cccc1-c1ncn(C)n1 [Example 55] | 100 to 1000 | 100 to 1000 |  |  |
| ≤ 1 | [2H]C([2H])([2H])NC(=O)c1nnc(N2CCN(C)C2=O)cc1Nc1cccc(-c2ncn(C)n2)c1OC [Example 2, 4-[2-methoxy-3-(1-methyl-1,2,4-triazol-3-yl)anilino]-6-(3-methyl-2-oxo-imidazolidin-1-yl)-N-(trideuteriomethyl)pyridazine-3-carboxamide] | < 100 | 100 to 1000 |  |  |
| 1 to 5 | COc1c(Nc2cc(NC(=O)C3CC3)nnc2C(=O)C(F)F)cccc1-c1ncn(C)n1 [Example 44] | 100 to 1000 | 1000 to 10000 |  |  |
| ≤ 1 | [2H]C([2H])([2H])NC(=O)c1nnc(N2CCN(CC3CCOC3)C2=O)cc1Nc1cccc(-c2ncn(C)n2)c1OC (stereo not shown) [Example 71] | 100 to 1000 | 100 to 1000 |  |  |
| ≤ 1 | [2H]C([2H])([2H])NC(=O)c1nnc(-n2ccn(C)c2=O)cc1Nc1cccc(-c2ncn(C)n2)c1OC [Example 63] | 100 to 1000 | 100 to 1000 |  |  |
| 1 to 5 | [2H]C([2H])([2H])NC(=O)c1nnc(N2CCC(C#N)(C3CC3)C2=O)cc1Nc1cccc(-c2ncn(C)n2)c1OC (stereo not shown) [Example 61] | 1000 to 10000 | 1000 to 10000 |  |  |
| 1 to 5 | [2H]C([2H])([2H])NC(=O)c1nnc(N2CC(F)(F)C2=O)cc1Nc1cccc(-c2ncn(C)n2)c1OC [Example 57] | 1000 to 10000 | 1000 to 10000 |  |  |
| 1 to 5 | [2H]C([2H])([2H])NC(=O)c1nnc(N2CCCC2=O)cc1Nc1cccc(-c2ncn(C)n2)c1OC [Example 56] | 100 to 1000 | 1000 to 10000 |  |  |
| 1 to 5 | [2H]C([2H])([2H])NC(=O)c1nnc(N2CCN(c3ccccc3)C2=O)cc1Nc1cccc(-c2ncn(C)n2)c1OC [Example 77] | 100 to 1000 | 1000 to 10000 |  |  |
| ≤ 1 | [2H]C([2H])([2H])NC(=O)c1nnc(N2CCN(C(C3CC3)C(F)(F)F)C2=O)cc1Nc1cccc(-c2ncn(C)n2)c1OC (stereo not shown) [Example 87] | < 100 | 100 to 1000 |  |  |
| 5 to 10 | [2H]C([2H])([2H])NC(=O)c1nnc(N2CCC2=O)cc1Nc1cccc(-c2ncn(C)n2)c1OC [Example 3, 4-[2-methoxy-3-(1-methyl-1,2,4-triazol-3-yl)anilino]-N-methyl-6-(2-oxoazetidin-1-yl) pyridazine-3-carboxamide] | 100 to 1000 | 1000 to 10000 |  |  |
| ≤ 1 | [2H]C([2H])([2H])NC(=O)c1nnc(N2CCN(CC#N)C2=O)cc1Nc1cccc(-c2ncn(C)n2)c1OC [Example 69] | < 100 | < 100 |  |  |
| ≤ 1 | [2H]C([2H])([2H])NC(=O)c1nnc(N2CCN(C3CCOCC3)C2=O)cc1Nc1cccc(-c2ncn(C)n2)c1OC [Example 86] | < 100 | 100 to 1000 |  |  |
|  | [2H]C([2H])([2H])NC(=O)c1nnc(N2CCC(C)(C)C2=O)cc1Nc1cccc(-c2ncn(C)n2)c1OC [Example 7, 6-(3,3-dimethyl-2-oxo-pyrrolidin-1-yl)-4-[2-methoxy-3-(1-methyl-1,2,4-triazol-3-yl)anilino]-N-(trideuteriomethyl)pyridazine-3-carboxamide] | 100 to 1000 | 100 to 1000 |  |  |

| Compound | Kd [1] [nM] | IC50 ([2]; human PBMC, IL-12 10 ng/ml) [nM] | IC50 ([3]; human PBMC, INFα 5000 units/ml) [nM] | IC50 ([2]; Homo sapiens, PBMC) [nM] | IC50 ([3]; Homo sapiens, PBMC) [nM] |
| --- | --- | --- | --- | --- | --- |
| COc1c(Nc2cc(NC(=O)C3CC3)nnc2C(=O)C2CC2)cccc1-c1ncn(C)n1 [Example 26] | ≤ 1 | < 100 | 100 to 1000 |  |  |
| CCC(=O)c1nnc(NC(=O)C2CC2)cc1Nc1cccc(-c2ncn(C)n2)c1OC [Example 25] | ≤ 1 | 100 to 1000 | 100 to 1000 |  |  |
| COc1c(Nc2cc(NC(=O)C3CC3)nnc2C(C)=O)cccc1-c1ncn(C)n1 [Example 24] | 1 to 5 | 100 to 1000 | 100 to 1000 |  |  |
| [2H]C([2H])([2H])NC(=O)c1c(Nc2cccc(-c3ncn(C)n3)c2OC)cc(NC(=O)C2CC2)nc1F [Example 23] | ≤ 1 | 100 to 1000 | 100 to 1000 |  |  |
